Literature values as cited in patent US20020035131A1, “Regimen and kit for amelioration of premature ejaculation” (Pentech Pharmaceuticals, Inc., priority 1999, published 2002).

System: patients treated for premature ejaculation
Conditions: cited from earlier work

CN[C@H]1CC[C@@H](c2ccc(Cl)c(Cl)c2)c2ccccc21 [sertraline]
patients who managed to ejaculate during sexual intercourse (25 mg sertraline/day, study group of 46): all patients
men unable to ejaculate after prolonged sexual intercourse (50 mg sertraline/day, 4/46): 9%
patients unable to ejaculate after prolonged sexual intercourse (100 mg sertraline/day, 10/46): 22%
